pEC50: −log10 of the molar value.
Columns and labels:
[1] = system: symmetric di-methyl arginine in Z-138 cells; experiment: Z-138 Methylation Assay (In Cell Western for symmetric di-methyl arginine and DNA content); assay type: cell-based; details: Homo sapiens, read-out: ICW EC50
From the text: [formula] [formula] Where top and bottom are the normally allowed to float, but may be fixed at 100 or 0 respectively in a 3-parameter fit. The Hill Coefficient normally allowed to float but may also be fixed at 1 in a 3-parameter fit. Y is the % inhibition and X is the compound concentration.
RPMI/Glutamax medium, penicillin-streptomycin, heat inactivated fetal bovine serum, and D-PBS were purchased from Life Technologies, Grand Island, N.Y., USA. Odyssey blocking buffer, 800CW goat anti-rabbit IgG (H+L) antibody, and Licor Odyssey infrared scanner were purchased from Licor Biosciences, Lincoln, Nebr., USA. Symmetric di-methyl arginine antibody was purchased from EMD Millipore, Billerica, Mass., USA. 16% Paraformaldehyde was purchased from Electron Microscopy Sciences, Hatfield, Pa., USA.
Cell Treatment, in Cell Western (ICW) for Detection of Symmetric Di-Methyl Arginine and DNA Content.
Z-138 cells were seeded in assay medium at a concentration of 50,000 cells per mL to a 384-well cell culture plate with 50 μL per well. Compound (100 nL) from 384 well source plates was added directly to 384 well cell plate. Plates were incubated at 37° C., 5% CO2 for 96 hours. […] Plates were incubated at room temperature for 30 minutes then incubated at 37° C., 5% CO2 for 5 hours. After the incubation, 40 μL per well of 8% paraformaldehyde in PBS (16% paraformaldahyde was diluted to 8% in PBS) was added to each plate and incubated for 30 minutes. […] Next 30 μL per well of Odyssey blocking buffer were added to each plate and incubated 1 hour at room temperature. Blocking buffer was removed and 20 μL per well of primary antibody was added (symmetric di-methyl arginine diluted 1:100 in Odyssey buffer with 0.1% Tween 20 (v/v)) and plates were incubated overnight (16 hours) at 4° C. Plates were washed 5 times with 100 μL per well of wash buffer. Next 20 μL per well of secondary antibody was added (1:200 800CW goat anti-rabbit IgG (H+L) antibody, 1:1000 DRAQ5 (Biostatus limited) in Odyssey buffer with 0.1% Tween 20 (v/v)) and incubated for 1 hour at room temperature. The plates were washed 5 times with 100 μL per well wash buffer then 1 time with 100 μL per well of water. Plates were allowed to dry at room temperature then imaged on the Licor Odyssey machine which measures integrated intensity at 700 nm and 800 nm wavelengths. Both 700 and 800 channels were scanned.
First, the ratio for each well was determined by:
Each plate included fourteen control wells of DMSO only treatment (minimum inhibition) as well as fourteen control wells for maximum inhibition treated with 3 μM of a reference compound (Background wells). The average of the ratio values for each control type was calculated and used to determine the percent inhibition for each test well in the plate. Reference compound was serially diluted three-fold in DMSO for a total of nine test concentrations, beginning at 3 μM. Percent inhibition was determined and IC50 curves were generated using triplicate wells per concentration of compound. Percent Inhibition=100−

Z-138 cell line = experiment: Z-138 Proliferation Assay (Cell Titer Glo, 5 days); assay type: cell-based; details: Homo sapiens, 120 h; Z-138 cells, 5 days; read-out: Proliferation EC50
From the text: RPMI/Glutamax medium, penicillin-streptomycin, heat inactivated fetal bovine serum were purchased from Life Technologies, Grand Island, N.Y., USA. V-bottom polypropylene 384-well plates were purchased from Greiner Bio-One, Monroe, N.C., USA. Cell culture 384-well white opaque plates were purchased from Perkin Elmer, Waltham, Mass., USA. Cell-Titer Glo® was purchased from Promega Corporation, Madison, Wis., USA. SpectraMax M5 plate reader was purchased from Molecular Devices LLC, Sunnyvale, Calif., USA.
A compound source plate was prepared by performing triplicate nine-point 3-fold serial dilutions in DMSO, beginning at 10 mM (final top concentration of compound in the assay was 20 μM and the DMSO was 0.2%). A 100 nL aliquot from the compound stock plate was added to its respective well in the cell plate. […] After addition of compounds, assay plates were incubated for 5 days at 37° C., 5% CO2, relative humidity >90%.
Cell viability was measured by quantitation of ATP present in the cell cultures, adding […] of Cell Titer Glo® reagent to the cell plates. Luminescence was read in the SpectraMax M5 microplate reader. The concentration of compound inhibiting cell viability by 50% was determined using a 4-parametric fit of the normalized dose response curves.

Compound | pEC50 [1] | pEC50 (Z-138 cell line)
CN1CCN(Cc2cccc(C(=O)NCC(O)CN3CCc4ccccc4C3)c2)CC1 (stereo not drawn) [Compound 30, N-(3-(3,4-dihydroisoquinolin-2(1H)-yl)-2-hydroxypropyl)-3-((4-methylpiperazin-1-yl)methyl)benzamide] | 6.00 to 7.00 | 5.00 to 6.00
CN1CC(Nc2cc(C(=O)NC[C@H](O)CN3CCc4ccccc4C3)ncn2)C1 [Compound 281] | 6.00 to 7.00 | 4.30 to 5.00
CC(=O)N1CCN(Cc2cccc(C(=O)NCC(O)CN3CCc4ccccc4C3)c2)CC1 (stereo not drawn) [Compound 100] | > 7.00 | 5.00 to 6.00
O=C(NCC(O)CN1CCc2ccccc2C1)c1cccc(-c2cc[nH]n2)c1 (stereo not drawn) [Compound 10] | 6.00 to 7.00 | 5.00 to 6.00
O=C(NC[C@H](O)CN1CCc2ccccc2C1)c1cccc(OC2CCOCC2)c1 [Compound 82] | > 7.00 | 6.00 to 7.00
CS(=O)(=O)N1CCC(Oc2cccc(C(=O)NCC(O)CN3CCc4ccccc4C3)c2)C1 (stereo not drawn) [Compound 162] | > 7.00 | 5.00 to 6.00
CC(=O)N1CC(Nc2cc(C(=O)NC[C@H](O)CN3CCc4ccccc4C3)ccn2)C1 [Compound 279] | > 7.00 | > 7.00
O=C(NC[C@H](O)CN1CCc2ccccc2C1)c1cccc(-c2ccccn2)c1 [Compound 20] | > 7.00 | 6.00 to 7.00
O=C(NC[C@@H](O)CN1CCc2ccccc2C1)c1ccnc(NC2CCOCC2)c1 [Compound 184] | > 7.00 | 5.00 to 6.00
O=C(NC[C@H](O)CN1CCc2ccccc2C1)c1ccnc(NC2CCNCC2)c1 [Compound 200] | 6.00 to 7.00 | 4.30 to 5.00
C[C@H]1CC(Nc2cccc(C(=O)NC[C@H](O)CN3CCc4ccccc4C3)c2)CCO1 (stereo partly drawn) [Compound 167] | > 7.00 | 6.00 to 7.00
COCCCNc1cccc(C(=O)NCC(O)CN2CCc3ccccc3C2)c1 (stereo not drawn) [Compound 69] | 5.00 to 6.00 | < 4.70
CN1CCC(Nc2cc(C(=O)NC[C@H](O)CN3CCc4ccccc4C3)ccn2)CC1 [Compound 223] | > 7.00 | 5.00 to 6.00
O=C(NC[C@H](O)CN1CCc2ccccc2C1)c1ccnc(NCc2ccncc2)c1 [Compound 189] | > 7.00 | 6.00 to 7.00
Cn1nccc1-c1cccc(C(=O)NCC(O)CN2CCc3ccccc3C2)c1 (stereo not drawn) [Compound 2, N-(3-(3,4-dihydroisoquinolin-2(1H)-yl)-2-hydroxypropyl)-3-(1-methyl-1H-pyrazol-5-yl)benzamide] | > 7.00 | 5.00 to 6.00
O=C(NC[C@H](O)CN1CCc2ccccc2C1)c1n[nH]c2ccccc12 [Compound 242] | 6.00 to 7.00 | 5.00 to 6.00
CC(=O)N1CCC(Oc2ccc(C(=O)NCC(O)CN3CCc4ccccc4C3)cc2)CC1 (stereo not drawn) [Compound 107] | > 7.00 | 6.00 to 7.00
Cc1cc2ncc(C(=O)NC[C@H](O)CN3CCc4ccccc4C3)c(C)n2n1 [Compound 275] | 6.00 to 7.00 | 5.00 to 6.00
CC(C)N1CCC(Oc2ccc(C(=O)NCC(O)CN3CCc4ccccc4C3)cc2)CC1 (stereo not drawn) [Compound 106] | > 7.00 | 6.00 to 7.00
O=C(NC[C@@H](O)CN1CCc2ccccc2C1)c1cc(NC2COC2)ncn1 [Compound 336] | 6.00 to 7.00 | 4.30 to 5.00
O=C(NC[C@H](O)CN1CCc2ccccc2C1)c1cc(OC2CCOCC2)ncn1 [Compound 256] | > 7.00 | 5.00 to 6.00
O=C(NC[C@H](O)CN1CCc2ccccc2C1)c1ccnc(NC2CCCC2)c1 [Compound 334] | > 7.00 | > 7.00
O=C(NCC(O)CN1CCc2ccccc2C1)c1cccc(CN2CCNCC2)c1 (stereo not drawn) [Compound 29] | 6.00 to 7.00 | 5.00 to 6.00

Compound | pEC50 [1] | pEC50 (Z-138 cell line)
O=C(NC[C@H](O)CN1CCc2ccccc2C1)c1ccnc(NCC2CCCCN2)c1 (stereo partly drawn) [Compound 237] | > 7.00 | 5.00 to 6.00
O=C(NCC(O)CN1CCc2ccccc2C1)c1ccc(OC2CCN(CC(F)(F)F)C2)cc1 (stereo not drawn) [Compound 199] | > 7.00 | 5.00 to 6.00
O=C(NCC(O)CN1CCc2ccccc2C1)c1cccc(C2CCOCC2)c1 (stereo not drawn) [Compound 99] | > 7.00 | 5.00 to 6.00
O=C(NCC(O)CN1CCc2ccccc2C1)c1ccc(-n2cncn2)cc1 (stereo not drawn) [Compound 110] | > 7.00 | 5.00 to 6.00
Cc1ccc2cc(C(=O)NC[C@@H](O)CN3CCc4ccccc4C3)ccc2n1 [Compound 219, (R)—N-(3-(3,4-dihydroisoquinolin-2(1H)-yl)-2-hydroxypropyl)-2-methylquinoline-6-carboxamide] | 6.00 to 7.00 | 4.30 to 5.00
O=C(NC[C@H](O)CN1CCc2ccccc2C1)c1ccc(OC2CCN(CCO)CC2)cc1 [Compound 321] | > 7.00 | 6.00 to 7.00
O=C(NCC(O)CN1CCc2ccccc2C1)c1cccc(CNC2CCOCC2)c1 (stereo not drawn) [Compound 15, N-(3-(3,4-dihydroisoquinolin-2(1H)-yl)-2-hydroxypropyl)-3-(((tetrahydro-2H-pyran-4-yl)amino)methyl)benzamide] | 6.00 to 7.00 | 4.30 to 5.00
CN(C)CCOc1cccc(C(=O)NCC(O)CN2CCc3ccccc3C2)c1 (stereo not drawn) [Compound 28, N-(3-(3,4-dihydroisoquinolin-2(1H)-yl)-2-hydroxypropyl)-3-(2-(dimethylamino)ethoxy)benzamide] | 6.00 to 7.00 | 4.30 to 5.00
Cc1ccc2cc(C(=O)NCC(O)CN3CCc4ccccc4C3)ccc2n1 (stereo not drawn) [Compound 84, N-(3-(3,4-dihydroisoquinolin-2(1H)-yl)-2-hydroxypropyl)-2-methylquinoline-6-carboxamide] | > 7.00 | 5.00 to 6.00
Cn1nccc1C(=O)NCC(O)CN1CCc2ccccc2C1 (stereo not drawn) [Compound 150] | 6.00 to 7.00 | < 4.70
O=C(NCC(O)CN1CCc2ccccc2C1)c1ccc2ncccc2c1 (stereo not drawn) [Compound 68] | > 7.00 | 5.00 to 6.00
CN(C)CCCOc1ccc(C(=O)NCC(O)CN2CCc3ccccc3C2)cc1 (stereo not drawn) [Compound 178] | > 7.00 | 5.00 to 6.00
Cc1ccc(NC2CCOCC2)cc1C(=O)NCC(O)CN1CCc2ccccc2C1 (stereo not drawn) [Compound 95] | 6.00 to 7.00 | 5.00 to 6.00
NCCN1CCN(Cc2cccc(C(=O)NCC(O)CN3CCc4ccccc4C3)c2)CC1 (stereo not drawn) [Compound 147] | 6.00 to 7.00 | 4.30 to 5.00
O=C(NC[C@H](O)CN1CCc2ccccc2C1)c1cc(OC2CCN(CC(F)(F)F)CC2)ncn1 [Compound 285] | 6.00 to 7.00 | 5.00 to 6.00
CS(=O)(=O)N1CCC(Nc2cc(C(=O)NC[C@H](O)CN3CCc4ccccc4C3)ncn2)CC1 [Compound 297] | > 7.00 | > 7.00
O=C(NC[C@H](O)CN1CCc2ccccc2C1)c1cc(NC2CCNC2)ncn1 (stereo partly drawn) [Compound 209] | > 7.00 | 4.30 to 5.00
O=C(NC[C@@H](O)CN1CCc2ccccc2C1)c1ccc2ncccc2c1 [Compound 218] | 6.00 to 7.00 | 4.30 to 5.00
O=C(NC[C@@H](O)CN1CCc2ccccc2C1)c1cc(NC2CCOCC2)ncn1 [Compound 185] | 6.00 to 7.00 | 5.00 to 6.00
O=C(NCC(O)CN1CCc2ccccc2C1)c1cccc(NC2CCN(CC(F)(F)F)C2)c1 (stereo not drawn) [Compound 102] | > 7.00 | 5.00 to 6.00
CC(C)N1CCC(Nc2ccc(C(=O)NCC(O)CN3CCc4ccccc4C3)cc2)CC1 (stereo not drawn) [Compound 140] | > 7.00 | 5.00 to 6.00
O=C(NC[C@H](O)CN1CCc2ccccc2C1)c1cncc(OC2CCNCC2)c1 [Compound 260] | 6.00 to 7.00 | < 4.70

— patent US10307413B2, “Tetrahydro- and dihydro-isoquinoline PRMT5 inhibitors and uses thereof” (Epizyme, Inc., priority 2013, dated 2019)
